Measurements taken from patent publication US20190241962A1, “GENETIC SUSCEPTIBILITY DIAGNOSIS AND TREATMENT OF MENTAL DISORDERS” (priority 2016, published 2019).
“Also recorded” adds a separate entry of the source.

How the values were obtained:
NAPE-PLD = experiment: RT-PCR NAPE-PLD mRNA level in the cortex; type: in vivo, mice
Experimental: (§1) 100 microliters of 2-propanol was added. […] RNA was stored at −80 deg C.

Sabra mice = experiment: Open-field test, ambulation behavior, PCP mouse model of schizophrenia
GAD67 = experiment: RT-PCR GAD67 mRNA level in the cortex; type: in vivo, mice
Experimental: as §1

FAAH = experiment: RT-PCR FAAH mRNA level in the cortex; type: in vivo, mice
Experimental: as §1

IL-6 = experiment: RT-PCR IL-6 mRNA level in the cortex; type: in vivo, mice
Experimental: as §1

CB1 receptor = experiment: RT-PCR CB1 receptor mRNA level in the cortex; type: in vivo, mice
Experimental: as §1

MGL = experiment: RT-PCR MGL mRNA level in the cortex; type: in vivo, mice
Experimental: as §1

[1] = test system: endocannabinoid catabolic enzymes (FAAH, MGL, ABHD6); experiment: RT-PCR mRNA level of endocannabinoid catabolic enzymes in cortex and brainstem; type: in vivo, mice; details: BCP after exposure to phencyclidine, females
Experimental: as §1

ABHD6 = experiment: RT-PCR ABHD6 mRNA level in the cortex; type: in vivo, mice
Experimental: as §1

CB2 receptor = experiment: RT-PCR CB2 receptor mRNA level in the cortex; details: PCP vs control group
Experimental: Each brain area was placed in an Eppendorf vessel and covered with RNAlater® solution (Ambion). Eppendorfs were stored overnight at 4° C. and then stored at (−)80° C. for permanent use.
Twenty microliters of 1-bromo-3-chloropropane were added and the Eppendorf was vortexed. After 10 min at room temperature it was centrifuged at 12,000×g for 15 minutes at 4° C. Then the colorless upper aqueous phase was removed to a fresh tube. 100 microliters of 2-propanol was added. Samples were centrifuged again 12,000×g for 10 minutes at 4° C. The supernatant was removed and the RNA pellet was washed with 200 ul cold 75% ethanol. The sample was re-centrifuged at 8000×g for 5 minutes at 4° C. The RNA pellet was dried for 5 minutes by air-drying on ice and 50 ul DEPC water were added to the RNA pellet. RNA was stored at −80 deg C. Genomic DNA strands were then removed by Turbo DNA-free Kit according to manufacturer's recommendation. RNA level was read by Nanodrop® reader. cDNA was prepared according to the manufacturer recommendation using High Capacity cDNA Reverse Transcription Kit (Applied Biosystems).
RT-PCR reaction mix was prepared with Power SYBR® Green PCR Master Mix (Applied Biosystems) according to manufacturer instructions. Mixes were read with Mx300P (Stratagen) and the results of Ct were analysed according to the delta-delta Ct method of analysis.

[2] = BCP after PCP, female mice, right and left cortices
[3] = BCP after PCP, male mice, cortex
[4] = BCP after PCP, female mice, cortex
[5] = PCP vs control group, female mice, right and left cortices
[6] = PCP vs control group, male mice, cortex
[7] = PCP vs control group, female mice, left cortex
[8] = PCP vs control group, female mice, right cortex
[9] = PCP vs control group, male mice, left cortex
[10] = PCP vs control group, male mice, right cortex

Q: Which “NAPE-PLD mRNA level” value (NAPE-PLD; [2]) does the source give for `C=C1CC/C=C(\C)CC[C@@H]2[C@@H]1CC2(C)C` [BCP, beta-caryophyllene] here?
A: The value was “did not reverse this effect”.

Q: What about the “NAPE-PLD mRNA level” value (NAPE-PLD; [3]) of the same molecule?
A: Its value is “did not affect the expression level of NAPE-PLD mRNA”.

Q: What about the ambulation behavior (Sabra mice; BCP 10 mg/kg one hour after PCP, Sabra female mice) of the same molecule?
A: Its ambulation behavior is “reversed altered behavior”.

Q: What about the ambulation behavior (Sabra mice; BCP 10 mg/kg one hour after PCP, Sabra male mice) of the same molecule?
A: The ambulation behavior was “reversed altered behavior”.

Q: And the “GAD67 mRNA level” value (GAD67; [2])?
A: Its value is “did not reverse this effect”.

Q: And the “GAD67 mRNA level” value (GAD67; [3])?
A: The value was “did not affect the expression level of GAD67 mRNA”.

Q: What about the “FAAH mRNA level” value (FAAH; [4]) of the same molecule?
A: Its value is “did not reverse; also recorded: did not alter gene expression of FAAH”.

Q: And the “FAAH mRNA level” value (FAAH; BCP after PCP, male mice)?
A: Its value is “reversed the effect of PCP”.

Q: And the “IL-6 mRNA level” value (IL-6; [4])?
A: Its value is “did not alter gene expression of IL-6”.

Q: What about the “IL-6 mRNA level” value (IL-6; [3]) of the same molecule?
A: Its value is “reversed the effect of PCP”.

Q: And the “CB1 receptor mRNA level” value (CB1 receptor; [4])?
A: The value was “did not alter gene expression of CB1 receptor”.

Q: What about the “CB1 receptor mRNA level” value (CB1 receptor; [3]) of the same molecule?
A: Its value is “did not alter gene expression of CB1 receptor”.

Q: And the “MGL mRNA level” value (MGL; [4])?
A: The value was “did not reverse; also recorded: did not alter gene expression of MGL”.

Q: What about the “mRNA level of the selected endocannabinoid catabolic enzymes” value [1] of the same molecule?
A: The value was “did not lead to significant changes”.

Q: What about the “ABHD6 mRNA level” value (ABHD6; [4]) of the same molecule?
A: Its value is “did not reverse; also recorded: did not alter gene expression of ABHD6”.

Q: For `c1ccc(C2(N3CCCCC3)CCCCC2)cc1` [PCP, Phencyclidine], which “NAPE-PLD mRNA level” value (NAPE-PLD; [5]) is on record?
A: The value was “reduced”.

Q: And the “NAPE-PLD mRNA level” value (NAPE-PLD; [6])?
A: The value was “not altered”.

Q: What about the “CB2 receptor mRNA level” value (CB2 receptor; female mice, right cortex) of the same molecule?
A: Its value is “reduced”.

Q: What about the “CB2 receptor mRNA level” value (CB2 receptor; left cortex) of the same molecule?
A: Its value is “no change”.

Q: And the ambulation behavior (Sabra mice; PCP 5 mg/kg vs control group, Sabra female mice)?
A: The ambulation behavior was “reduced”.

Q: And the ambulation behavior (Sabra mice; PCP 5 mg/kg vs control group, Sabra male mice)?
A: Its ambulation behavior is “elevated”.

Q: What about the “GAD67 mRNA level” value (GAD67; [5]) of the same molecule?
A: Its value is “reduced”.

Q: And the “GAD67 mRNA level” value (GAD67; [6])?
A: The value was “not altered”.

Q: And the “FAAH mRNA level” value (FAAH; [7])?
A: The value was “significantly decreased; also recorded: reduced”.

Q: What about the “IL-6 mRNA level” value (IL-6; [7]) of the same molecule?
A: Its value is “not in the left cortex”.

Q: And the “IL-6 mRNA level” value (IL-6; [8])?
A: Its value is “reduced”.

Q: What about the “IL-6 mRNA level” value (IL-6; [9]) of the same molecule?
A: Its value is “not in the left cortex”.

Q: What about the “IL-6 mRNA level” value (IL-6; [10]) of the same molecule?
A: Its value is “elevated”.

Q: And the “CB1 receptor mRNA level” value (CB1 receptor; [8])?
A: Its value is “elevated; also recorded: increased”.

Q: What about the “CB1 receptor mRNA level” value (CB1 receptor; [10]) of the same molecule?
A: Its value is “elevated”.

Q: What about the “MGL mRNA level” value (MGL; [7]) of the same molecule?
A: The value was “significantly decreased; also recorded: reduced”.

Q: And the “MGL mRNA level” value (MGL; [9])?
A: The value was “not in males”.

Q: And the “ABHD6 mRNA level” value (ABHD6; [7])?
A: The value was “significantly decreased; also recorded: reduced”.

Q: What about the “ABHD6 mRNA level” value (ABHD6; [8]) of the same molecule?
A: The value was “not in the right cortex”.

Q: What about the “ABHD6 mRNA level” value (ABHD6; [9]) of the same molecule?
A: Its value is “not in males”.
